The values below come from ChEMBL document CHEMBL1149699, “Structure-activity relationships of 3,4-dihydro-1H-quinazolin-2-one derivatives as potential CDK5 inhibitors” (Bioorg Med Chem, 2007).

pIC50: −log10 of the molar value.

Assay [1] concerns the target T1, Cyclin-dependent kinase 5/CDK5 activator 1 (Homo sapiens, UniProt Q00535). Nature of the assay: Inhibition of human His-tagged p25/CDK5. It is filed as protein-complex assay.
Assay [2] addresses T1, Cyclin-dependent kinase 5/CDK5 activator 1. Nature of the assay: Inhibition of human CDK5/p25 by HTRF assay. The class given is protein-complex assay. For orientation: In TR-FRET formats the signal depends on donor and acceptor labels being close together.
Assay [3] addresses Mitogen-activated protein kinase 3 (Homo sapiens, UniProt P27361). Nature of the assay: Inhibition of human Erk1.
In assay [4] the target is Mitogen-activated protein kinase 9 (Homo sapiens, UniProt P45984). Nature of the assay: Inhibition of human JNK2.
Mitogen-activated protein kinase 9, sequence (P45984 whole entry): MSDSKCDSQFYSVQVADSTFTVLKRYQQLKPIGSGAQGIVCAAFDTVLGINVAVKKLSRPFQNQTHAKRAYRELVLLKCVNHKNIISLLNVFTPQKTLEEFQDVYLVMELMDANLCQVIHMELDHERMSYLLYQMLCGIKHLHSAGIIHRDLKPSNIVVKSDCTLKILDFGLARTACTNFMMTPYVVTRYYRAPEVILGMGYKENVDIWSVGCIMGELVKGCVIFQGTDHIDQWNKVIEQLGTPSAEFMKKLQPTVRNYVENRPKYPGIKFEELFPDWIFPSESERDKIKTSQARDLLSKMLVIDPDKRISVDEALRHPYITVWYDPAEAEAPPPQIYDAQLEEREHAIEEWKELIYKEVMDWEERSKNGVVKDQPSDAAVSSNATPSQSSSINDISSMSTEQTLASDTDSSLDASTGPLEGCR
Assay [5] deals with Mitogen-activated protein kinase 14 (Homo sapiens, UniProt Q16539). The assay can be described thus: Inhibition of human p38 alpha.
Mitogen-activated protein kinase 14, sequence (Q16539 whole entry): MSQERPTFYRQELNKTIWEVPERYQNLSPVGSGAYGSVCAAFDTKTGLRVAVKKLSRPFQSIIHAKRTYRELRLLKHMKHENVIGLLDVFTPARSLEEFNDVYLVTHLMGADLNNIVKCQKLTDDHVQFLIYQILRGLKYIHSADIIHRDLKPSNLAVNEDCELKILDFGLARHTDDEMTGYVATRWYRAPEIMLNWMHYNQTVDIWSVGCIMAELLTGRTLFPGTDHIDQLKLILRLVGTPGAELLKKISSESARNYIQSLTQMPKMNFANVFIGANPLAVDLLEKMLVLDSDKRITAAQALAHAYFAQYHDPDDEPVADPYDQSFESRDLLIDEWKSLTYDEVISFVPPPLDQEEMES
Assay [6] in a line: Inhibition of human PKA.
Assay [7] can be described thus: Inhibition of human His-tagged cyclin 2/CDK2 by HTRF assay.

T1 sequence (Q00535 whole entry): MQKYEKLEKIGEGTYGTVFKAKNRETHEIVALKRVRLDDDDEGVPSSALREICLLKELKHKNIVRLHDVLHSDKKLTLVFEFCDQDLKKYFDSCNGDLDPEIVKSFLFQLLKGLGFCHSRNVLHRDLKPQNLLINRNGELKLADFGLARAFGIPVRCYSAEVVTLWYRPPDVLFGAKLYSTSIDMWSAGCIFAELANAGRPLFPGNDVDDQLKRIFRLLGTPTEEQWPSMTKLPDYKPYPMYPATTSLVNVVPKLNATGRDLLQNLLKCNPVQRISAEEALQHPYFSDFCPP
T1 sequence (Q15078 whole entry, further chain): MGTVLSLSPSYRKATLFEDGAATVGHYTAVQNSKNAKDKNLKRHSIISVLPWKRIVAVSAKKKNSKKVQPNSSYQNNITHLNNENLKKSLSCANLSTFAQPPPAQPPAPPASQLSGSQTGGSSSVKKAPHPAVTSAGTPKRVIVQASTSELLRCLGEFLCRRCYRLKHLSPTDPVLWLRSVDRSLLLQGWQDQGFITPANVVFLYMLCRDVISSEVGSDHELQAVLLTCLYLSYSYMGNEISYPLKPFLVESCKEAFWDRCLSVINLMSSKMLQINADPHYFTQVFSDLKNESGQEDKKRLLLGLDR
Mitogen-activated protein kinase 3, sequence (P27361 whole entry): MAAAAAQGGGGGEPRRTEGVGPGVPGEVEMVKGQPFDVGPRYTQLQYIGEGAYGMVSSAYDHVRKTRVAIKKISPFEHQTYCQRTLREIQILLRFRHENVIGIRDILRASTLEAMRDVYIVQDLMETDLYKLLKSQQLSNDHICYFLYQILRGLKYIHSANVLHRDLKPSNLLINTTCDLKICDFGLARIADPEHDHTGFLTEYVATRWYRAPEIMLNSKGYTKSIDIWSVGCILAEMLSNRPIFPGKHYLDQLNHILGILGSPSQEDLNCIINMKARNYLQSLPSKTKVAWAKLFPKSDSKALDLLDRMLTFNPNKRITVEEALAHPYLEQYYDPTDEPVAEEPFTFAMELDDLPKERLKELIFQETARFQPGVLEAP

Regarding `CN1CCN(c2cccc(NC(=O)Nc3csc(-c4ccncc4)n3)n2)CC1`, the pIC50 in assay [1] was 7.82.
`O=C1Nc2ccccc2CN1c1nc(-c2ccncc2)no1` showed a pIC50 in assay [2] of less than 5.00.
The same measure, in the same setting: as for `O=C1Nc2cccc(Br)c2CN1c1csc(-c2ccncc2)n1`, the figure is 6.64; as for `O=C1Nc2cc(-c3ccccc3)ccc2CN1c1csc(-c2ccncc2)n1`, 6.95; as for `Cc1cccc2c1CN(c1csc(-c3ccncc3)n1)C(=O)N2`, 5.90.
On the same count and under the same terms, the result for `COc1cccc2c1CN(c1csc(-c3ccncc3)n1)C(=O)N2` reads 6.44; that for `O=C1Nc2ccc(F)cc2CN1c1csc(-c2ccncc2)n1`, 7.14.
In assay [2], `CN1CCN(c2ccc3c(c2)CN(c2csc(-c4ccncc4)n2)C(=O)N3)CC1` showed a pIC50 of 5.93.
The compound `O=C1Nc2ccccc2CN1c1nc(-c2cccnc2)cs1` showed a pIC50 in assay [1] of 6.40.
`Cc1ccc2c(c1)CN(c1csc(-c3ccncc3)n1)C(=O)N2` had a pIC50 in assay [2] of 6.78.
Take `O=C(Nc1ccccn1)Nc1csc(-c2ccncc2)n1`: the pIC50 in assay [2] was 6.72. The pIC50 values of the last two compounds are within 0.2 log units of each other.
Same read-out and setting: the result for `O=c1[nH]c2ccccc2c(=O)n1-c1csc(-c2ccncc2)n1` reads less than 5.00.
The compound `CCc1cc(-c2nc(N3Cc4ccccc4NC3=O)cs2)ccn1` gave a pIC50 in assay [1] of 6.13.
With `O=C1Nc2ccccc2CN1c1csc(-c2ccncc2)n1`, the pIC50 in assay [3] was less than 5.00; in assay [4] it was less than 5.00; in assay [5], less than 5.00; in assay [1] it was 7.10; in assay [6] it was less than 5.00; in assay [7], 6.85. The same compound had a pIC50 in assay [2] of 7.10.
In assay [2], `O=C1Nc2ccccc2CN1c1cccc(-c2ccncc2)c1` showed a pIC50 of less than 5.00.
In turn, `O=C1Nc2ccccc2CN1c1nc(-c2ccncc2)ns1` gave a pIC50 in assay [2] of 6.21.
On to `O=C1Nc2cccc(Cl)c2CN1c1csc(-c2ccncc2)n1`, for which the pIC50 in assay [2] was 6.48.
Regarding `O=C1Nc2ccccc2CN1c1nc(-c2ccncc2)cs1`, the pIC50 in assay [1] and in assay [2] was 7.11 in each case.
For the compound `O=C(Nc1ccccc1)Nc1csc(-c2ccncc2)n1`, in assay [2], the pIC50 is 5.52.
In the case of `O=C1Nc2cc(Br)ccc2CN1c1csc(-c2ccncc2)n1`, the pIC50 in assay [2] is 7.42.
In the case of `CN1CCN(c2cccc3c2CN(c2csc(-c4ccncc4)n2)C(=O)N3)CC1`, in assay [2], the pIC50 is 6.08.
As to `O=c1[nH]c2ccccc2n1-c1csc(-c2ccncc2)n1`, in assay [2], the pIC50 was 5.94.
The same measure, in the same setting: as for `O=C1Nc2ccccc2CN1c1ccc(-c2ccncc2)s1`, the figure is less than 5.00.
As for `O=C1Nc2cc(F)ccc2CN1c1csc(-c2ccncc2)n1`, the pIC50 was less than 5.00 in assay [3]; less than 5.00 in assay [4]; less than 5.00 in assay [5]; 7.80 in assay [1]; less than 5.00 in assay [6]; 7.28 in assay [7]. Moreover, the pIC50 in assay [2] was 7.80.
The compound `O=C1Nc2ccccc2CN1c1nc(-c2ccccn2)cs1` gave a negative logarithm of the IC50 (pIC50) in assay [1] of 5.13.
In assay [2], `O=C1Nc2cccc(CN3CCOCC3)c2CN1c1csc(-c2ccncc2)n1` had a pIC50 of 6.55.
As to `O=C1Nc2cc(CN3CCOCC3)ccc2CN1c1csc(-c2ccncc2)n1`, the pIC50 was less than 5.00 in assay [3]; less than 5.00 in assay [4]; less than 5.00 in assay [5]; 7.21 in assay [1]; less than 5.00 in assay [6]; 6.28 in assay [7]. In assay [2], this compound showed a pIC50 of 7.21.
The compound `O=C1Nc2cccc(F)c2CN1c1csc(-c2ccncc2)n1` gave a pIC50 in assay [2] of 6.62.

Usually pIC50 stands for the IC50 on a negative log10 scale, so that one unit is a factor of ten. A high value points to a small IC50.
